Test [1] deals with control sera (pooled serum of ten healthy LUMC hospital workers; commercial negative donor pooled serum from the Dutch bloodbank). The class given is binding, human. More on the design: Binding of Control serum LUMC to linear peptides / Binding of Control serum Blood-bank to linear peptides / Binding of Control serum LUMC to looped peptides / Binding of Control Serum Blood-Bank to Looped peptides / Binding of Control serum LUMC to linear peptides of the protein M of SARS-CoV Urbani / Binding of Control serum Blood-bank to linear peptides of the protein M of SARS-CoV Urbani / Binding of Control serum LUMC to looped peptides of the protein M of SARS-CoV Urbani / Binding of Control Serum Blood-Bank to Looped peptides of the protein M of SARS-CoV Urbani: unit not given here.

Test [2] relates to antibodies in sera from SARS patients (sera 1a, 1b, 2, 6, 37, 62, London, SARS-yellow, SARS-green). It counts as binding, human. The arrangement: Binding of serum 6 to linear peptides of protein X1 of SARS-CoV Urbani / Binding of serum 37 to linear peptides of protein X1 of SARS-CoV Urbani / Binding of serum 6 to looped/cyclic peptide (PEPSCAN-ELISA) / Binding of serum 37 to looped/cyclic peptide (PEPSCAN-ELISA) / Binding of serum 37 to looped/cyclic peptides of protein X1 of SARS-CoV Urbani / Binding of serum 6 to linear peptides of protein X2 / Binding of serum 37 to linear peptides of protein X2 / Binding of serum 37 to looped/cyclic peptides of protein X2 of SARS-CoV Urbani / Binding of serum 6 to linear peptides of protein M of SARS-CoV Urbani / Binding of serum 37 to linear peptides of protein M of SARS-CoV Urbani / Binding of serum 6 to looped/cyclic peptides of protein M of SARS-CoV Urbani / Binding of serum 37 to looped/cyclic peptides of protein M of SARS-CoV Urbani / Binding of serum 6 to linear peptides of protein X3 of SARS-CoV Urbani / Binding of serum 37 to linear peptides of protein X3 of SARS-CoV Urbani / Binding of serum 37 to looped/cyclic peptides of protein X3 of SARS-CoV Urbani / Binding of serum 6 to linear peptides of protein X4 of SARS-CoV Urbani / Binding of serum 37 to linear peptides of protein X4 of SARS-CoV Urbani / Binding of serum 37 to looped/cyclic peptides of protein X4 of SARS-CoV Urbani / Binding of serum 6 to linear peptides of protein X5 of SARS-CoV Urbani / Binding of serum 37 to linear peptides of protein X5 of SARS-CoV Urbani / Binding of serum 37 to looped/cyclic peptides of protein X5 of SARS-CoV Urbani / Binding of serum 6 to linear peptides of protein N of SARS-CoV Urbani / Binding of serum 37 to linear peptides of protein N of SARS-CoV Urbani / Binding of serum 6 to linear peptide (PEPSCAN-ELISA) / Binding of serum 1a to looped/cyclic peptides of protein N of SARS-CoV Urbani / Binding of serum 1b to looped/cyclic peptides of protein N of SARS-CoV Urbani / Binding of serum 2 to looped/cyclic peptides of protein N of SARS-CoV Urbani / Binding of serum 6 to looped/cyclic peptides of protein N of SARS-CoV Urbani / Binding of serum 37 to looped/cyclic peptides of protein N of SARS-CoV Urbani / Binding of serum 62 to looped/cyclic peptides of protein N of SARS-CoV Urbani / Binding of serum London to looped/cyclic peptides of protein N of SARS-CoV Urbani / Binding of serum SARS-green to looped/cyclic peptides of protein N of SARS-CoV Urbani: unit not given here.

Test [3] has as its system rabbit serum obtained by immunizing a rabbit with the SARS-CoV strain Frankfurt 1. It counts as binding. More on the design: Binding of a rabbit serum to linear peptides / Binding of a rabbit serum to looped peptides / Rabbit serum linear peptides / Rabbit serum looped peptides / Binding of a rabbit serum to linear peptides of protein N of SARS-CoV Urbani (Rabbit serum linear peptides) / Binding of a rabbit serum to looped/cyclic peptides of protein N of SARS-CoV Urbani (Rabbit serum looped peptides): unit not given here.

The values that follow come from patent US20070128217A1 (priority 2003, published 2007).

Take AYSNRNRFLYIIKLV: in test [1], the “Binding of Control Serum Blood-Bank to Looped peptides of the protein M of SARS-CoV Urbani” value is given as 0.6, the “Binding of Control serum Blood-bank to linear peptides of the protein M of SARS-CoV Urbani” value turned out to be 0.7, the “Binding of Control serum LUMC to linear peptides of the protein M of SARS-CoV Urbani” value was determined as 0.7 and the “Binding of Control serum LUMC to looped peptides of the protein M of SARS-CoV Urbani” value is reported as 0.8. For the same sequence, in test [2], the “Binding of serum 1a to linear peptides of protein M of SARS-CoV Urbani” value stood at 0.7, the “Binding of serum 1b to linear peptides of protein M of SARS-CoV Urbani” value is given as 0.6, the “Binding of serum 2 to linear peptides of protein M of SARS-CoV Urbani” value worked out at 0.6 and the “Binding of serum 6 to linear peptides of protein M of SARS-CoV Urbani” value turned out to be 0.6. In addition, in test [2], the “Binding of serum 37 to linear peptides of protein M of SARS-CoV Urbani” value worked out at 0.4, the “Binding of serum 62 to linear peptides of protein M of SARS-CoV Urbani” value is given as 0.5, the “Binding of serum London to linear peptides of protein M of SARS-CoV Urbani” value came to 0.3 and the “Binding of serum SARS-green to linear peptides of protein M of SARS-CoV Urbani” value turned out to be 0.5. In addition, in test [2], the “Binding of serum SARS-yellow to linear peptides of protein M of SARS-CoV Urbani” value is on record as 0.2; the “Recognition of the peptide by sera of SARS-CoV infected individuals, and form (linear, looped/cyclic) in which it is recognized” value is recorded as “recognized in looped/cyclic form”. In test [3], the “Rabbit serum linear peptides” value stood at 0.3 and the “Rabbit serum looped peptides” value is listed as 0.5.
CALGKVLPFHRWHTM: in test [1], the “Binding of Control Serum Blood-Bank to Looped peptides” value is 0.4, the “Binding of Control serum Blood-bank to linear peptides” value worked out at 0.8, the “Binding of Control serum LUMC to linear peptides” value is reported as 0.7 and the “Binding of Control serum LUMC to looped peptides” value was 0.6. In addition, in test [2], the “Binding of serum 1a to linear peptides of protein X5 of SARS-CoV Urbani” value is reported as 0.7, the “Binding of serum 1a to looped/cyclic peptides of protein X5 of SARS-CoV Urbani” value is listed as 0.4, the “Binding of serum 1b to linear peptides of protein X5 of SARS-CoV Urbani” value came out at 0.5 and the “Binding of serum 1b to looped/cyclic peptides of protein X5 of SARS-CoV Urbani” value was 0.2. Further, in test [2], the “Binding of serum 2 to linear peptides of protein X5 of SARS-CoV Urbani” value came to 0.7, the “Binding of serum 2 to looped/cyclic peptides of protein X5 of SARS-CoV Urbani” value is on record as 0.6, the “Binding of serum 6 to linear peptides of protein X5 of SARS-CoV Urbani” value is given as 0.7 and the “Binding of serum 6 to looped/cyclic peptides of protein X5 of SARS-CoV Urbani” value was determined as 0.4. Further, in test [2], the “Binding of serum 37 to linear peptides of protein X5 of SARS-CoV Urbani” value is listed as 0.8, the “Binding of serum 37 to looped/cyclic peptides of protein X5 of SARS-CoV Urbani” value worked out at 0.5, the “Binding of serum 62 to linear peptides of protein X5 of SARS-CoV Urbani” value was 0.7 and the “Binding of serum 62 to looped/cyclic peptides of protein X5 of SARS-CoV Urbani” value is 0.3. Besides, in test [2], the “Binding of serum London to linear peptides of protein X5 of SARS-CoV Urbani” value came to 0.7, the “Binding of serum London to looped/cyclic peptides of protein X5 of SARS-CoV Urbani” value is 0.2, the “Binding of serum SARS-green to linear peptides of protein X5 of SARS-CoV Urbani” value stood at 0.7 and the “Binding of serum SARS-green to looped/cyclic peptides of protein X5 of SARS-CoV Urbani” value is given as 0.4. Also, in test [2], the “Binding of serum SARS-yellow to linear peptides of protein X5 of SARS-CoV Urbani” value is given as 0.1 and the “Binding of serum SARS-yellow to looped/cyclic peptides of protein X5 of SARS-CoV Urbani” value is 0.4. In test [3], the “Rabbit serum linear peptides” value was determined as 0.6 and the “Rabbit serum looped peptides” value is 1.0.
With CELYHYQECVRGTTV, in test [1], the “Binding of Control Serum Blood-Bank to Looped peptides” value amounted to 0.5, the “Binding of Control serum Blood-bank to linear peptides” value came to 0.5, the “Binding of Control serum LUMC to linear peptides” value was 0.5 and the “Binding of Control serum LUMC to looped peptides” value was found to be 0.6. Also, in test [2], the “Binding of serum 1a to linear peptides of protein X4 of SARS-CoV Urbani” value was 0.8, the “Binding of serum 1a to looped/cyclic peptides of protein X4 of SARS-CoV Urbani” value is 0.8, the “Binding of serum 1b to linear peptides of protein X4 of SARS-CoV Urbani” value is on record as 0.7 and the “Binding of serum 1b to looped/cyclic peptides of protein X4 of SARS-CoV Urbani” value was found to be 0.4. Further, in test [2], the “Binding of serum 2 to linear peptides of protein X4 of SARS-CoV Urbani” value is 0.5, the “Binding of serum 2 to looped/cyclic peptides of protein X4 of SARS-CoV Urbani” value was 0.8, the “Binding of serum 6 to linear peptides of protein X4 of SARS-CoV Urbani” value was 0.6 and the “Binding of serum 6 to looped/cyclic peptides of protein X4 of SARS-CoV Urbani” value turned out to be 0.5. Further, in test [2], the “Binding of serum 37 to linear peptides of protein X4 of SARS-CoV Urbani” value is recorded as 0.9, the “Binding of serum 37 to looped/cyclic peptides of protein X4 of SARS-CoV Urbani” value stood at 0.8, the “Binding of serum 62 to linear peptides of protein X4 of SARS-CoV Urbani” value is on record as 0.8 and the “Binding of serum 62 to looped/cyclic peptides of protein X4 of SARS-CoV Urbani” value is reported as 0.6. In test [2], the “Binding of serum London to linear peptides of protein X4 of SARS-CoV Urbani” value is on record as 0.9, the “Binding of serum London to looped/cyclic peptides of protein X4 of SARS-CoV Urbani” value came out at 0.3, the “Binding of serum SARS-green to linear peptides of protein X4 of SARS-CoV Urbani” value worked out at 0.7 and the “Binding of serum SARS-green to looped/cyclic peptides of protein X4 of SARS-CoV Urbani” value is listed as 0.2. In test [2], the “Binding of serum SARS-yellow to linear peptides of protein X4 of SARS-CoV Urbani” value came to 0.6 and the “Binding of serum SARS-yellow to looped/cyclic peptides of protein X4 of SARS-CoV Urbani” value stood at 0.4. In test [3], the “Rabbit serum linear peptides” value was determined as 0.4 and the “Rabbit serum looped peptides” value is given as 0.2.
In the case of CINACRIIMRCWLCW, in test [1], the “Binding of Control Serum Blood-Bank to Looped peptides” value was 0.8, the “Binding of Control serum Blood-bank to linear peptides” value came to 0.7, the “Binding of Control serum LUMC to linear peptides” value stood at 0.8 and the “Binding of Control serum LUMC to looped peptides” value turned out to be 0.7. For the same sequence, in test [2], the “Binding of serum 1a to linear peptides of protein X1 of SARS-CoV Urbani” value was determined as 0.8, the “Binding of serum 1a to looped/cyclic peptide (PEPSCAN-ELISA)” value is recorded as 0.7, the “Binding of serum 1b to linear peptides of protein X1 of SARS-CoV Urbani” value came to 0.5 and the “Binding of serum 1b to looped/cyclic peptide (PEPSCAN-ELISA)” value is listed as 0.4. Further, in test [2], the “Binding of serum 2 to linear peptides of protein X1 of SARS-CoV Urbani” value was 0.5, the “Binding of serum 2 to looped/cyclic peptide (PEPSCAN-ELISA)” value was 0.6, the “Binding of serum 6 to linear peptides of protein X1 of SARS-CoV Urbani” value is 0.7 and the “Binding of serum 6 to looped/cyclic peptide (PEPSCAN-ELISA)” value was 0.7. Besides, in test [2], the “Binding of serum 37 to linear peptides of protein X1 of SARS-CoV Urbani” value is 0.6, the “Binding of serum 37 to looped/cyclic peptide (PEPSCAN-ELISA)” value is given as 0.6, the “Binding of serum 62 to linear peptides of protein X1 of SARS-CoV Urbani” value was 0.7 and the “Binding of serum 62 to looped/cyclic peptide (PEPSCAN-ELISA)” value came out at 0.7. Also, in test [2], the “Binding of serum London to linear peptides of protein X1 of SARS-CoV Urbani” value amounted to 0.4, the “Binding of serum London to looped/cyclic peptide (PEPSCAN-ELISA)” value is recorded as 0.8, the “Binding of serum SARS-green to linear peptides of protein X1 of SARS-CoV Urbani” value is recorded as 0.2 and the “Binding of serum SARS-green to looped/cyclic peptide (PEPSCAN-ELISA)” value is 0.3. Moreover, in test [2], the “Binding of serum SARS-yellow to linear peptides of protein X1 of SARS-CoV Urbani” value came out at 0.4 and the “Binding of serum SARS-yellow to looped/cyclic peptide (PEPSCAN-ELISA)” value is recorded as 0.5. The “Recognition of the peptide by the rabbit serum” value in test [3] is on record as “recognized”.
